Measured values: patent publication EP2759295A1, “Foam cell specific Liver X Receptor (LXR) alpha agonist, SIRT1 inhibitors as well as p300 inhibitors as pharmaceutically active agents” (Max-Planck-Gesellschaft zur Förderung der Wissenschaften …, priority 2013, dated 2014)
Entries after “also recorded” stand apart in the source; their conditions may differ.

Columns and labels:
[1] = biological target: T1, LXRα ligand binding domain (LBD) (Homo sapiens, UniProt Q13133); test: dual luciferase reporter gene assay with LXRα ligand binding domain in HEK-293 cells; type: cell-based
T1 construct: expressed in transfected cells; host or cells: HEK-293
T1 sequence (Q13133 164-447): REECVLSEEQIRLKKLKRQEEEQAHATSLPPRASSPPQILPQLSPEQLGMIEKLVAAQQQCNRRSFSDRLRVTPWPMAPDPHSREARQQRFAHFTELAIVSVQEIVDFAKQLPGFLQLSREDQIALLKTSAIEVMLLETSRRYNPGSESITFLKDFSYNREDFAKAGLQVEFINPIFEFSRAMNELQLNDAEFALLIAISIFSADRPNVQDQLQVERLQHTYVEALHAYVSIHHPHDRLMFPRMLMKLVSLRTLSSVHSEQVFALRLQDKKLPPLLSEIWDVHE
Protocol: The ligand binding domain (LBD) of LXRα (amino acids 164 to 447) or LXRβ (amino acids 154 to 461) was cloned into pBIND [Renilla/Amp] vector (Promega). Selection and amplification were performed in E-coli cells. Purification of the plasmids was performed with a plasmid purification kit (Qiagen). For transfection HEK-293 cells were plated in 96-well plates (TPP) at a density of 3.5 x 10^4 cells/well for 24 h. To investigate the ligand binding on LXRα ligand binding domain, 0.04 ng of renilla luciferase coding plasmide pGL4.75 (Promega), 0.04 ng of LXRα-LBD/GAL4-DBD plasmide and 80 ng of firefly luciferase coding plasmide pGL4.31 (Promega) were used in a total volume of 200 µL for each well. In LXRβ binding assay 40 ng of LXRβ-LBD/GAL4-DBD plasmide were applied in each transfection mix. Transfection was carried out for 4 h with Lipofectamine 2000 Transfection Reagent (Invitrogen) in Opti-MEM medium (Invitrogen). Ligand treatment was performed at different concentrations for 24 h. For lysis and detection dual-luciferase reporter gene assay system (Promega) and POLARstar Omega (BMG LABTECH) were used.

foam cells = test: qPCR gene expression of LXRα target genes in foam cells; type: cell-based, human; details: 10 µM
Protocol: (§1) For generating macrophages differentiation was induced by 10^-8 M Phorbol 12-myristate 13-acetate (PMA) (Sigma-Aldrich) for 48 h. Ligand treatment of macrophages was performed for further 24 h. To induce foam cell formation macrophages were treated for additional 48 h with 100 µg/mL modified human oxidized low density lipoprotein (oxLDL) obtained from Source BioScience (RP-048). Ligand treatment was performed simultaneously with foam cell formation. Cholesterol loading and treatment was controlled with Oil Red O staining (Alfa Aeser). To investigate ligand induced effects on cell proliferation of THP-1 macrophages CellTiter-Glo Luminescent Cell Viability Assay (Promega) was utilized.
(§2) Total RNA isolation and purification was performed by using the RNeasy Mini Kit (QIAGEN) and RNase-Free DNase Set (QIAGEN). cDNA was generated by reverse transcription using the High Capacity cDNA Reverse Transcription Kit (Applied Biosystems). Gene expression was quantified using the SYBR Green PCR Master Mix (Applied Biosystems) and ABI 7900HT Fast Real Time PCR System (Applied Biosystems). In each reaction 0.8 ng/µL cDNA and 0.2 µM primers were used. Gene expression was calculated with the ΔΔCt-method. β-Actin was used for normalisation.

THP-1 macrophages = test: qPCR gene expression of LXRα target genes in THP-1 macrophages; type: cell-based, human
Protocol: as §1, §2

With C(=C\c1ccc(OCC2CO2)cc1)/c1ccccc1 (stereo not drawn) [compound 1, 2-[[4-[(E)-styryl]phenoxy]-methyl]oxirane] as the compound, how does the EC50 ([1]; +DMSO, LXRα reporter gene activation) read?
Its EC50 is 35 nM.

And the Efficacy ([1]; +DMSO, reporter gene transcription vs. T09)?
The Efficacy was 6%.

What about the “specificity LXRα vs. LXRβ” value ([1]; reporter-gene assays with LXRα and LXRβ LBD) of the same compound?
The value was “characteristic specificity for LXRα”.

And the “expression of LXRα target genes (LXRα, SREBF1, ABCA1, APOE)” value (foam cells)?
Its value is “strongly in foam cells; also recorded: potent target gene expression similar to T09; also recorded: up-regulation of SREBF1 mRNA”.

And the “expression of LXRα target genes (LXRα, SREBF1, ABCA1, APOE)” value (THP-1 macrophages; 10 µM)?
The value was “only marginally activated LXR-target genes in macrophages”.

And the ABCA1 expression (THP-1 macrophages; in the presence of 1 µM T09)?
The ABCA1 expression was “additive effects”.
